Source: the OligoGym collection
Oligonucleotides are written 5' to 3', each unit as a sugar letter and its base; * is a phosphorothioate linkage, no mark a phosphodiester; rarer units and linkages stand in square brackets, end groups in braces. Plain capitals give the bases only. d = 2'-deoxy (DNA); r = 2'-OH (RNA)

molecular target: UBE2E3; assay: reporter assay of Huesken 2005; conditions: siRNA
Also: test concentration or dose not given here.

Question: Which normalised inhibition (eCFP-eYFP dual reporter) does the source give for “sense rArArArArCrCrUrUrCrUrGrCrCrArCrCrCrArGdTdT / antisense rCrUrGrGrGrUrGrGrCrArGrArArGrGrUrUrUrUdCdT” here?
Answer: 32.1%

Question: “sense rArArArGrGrUrUrArCrUrUrUrCrCrGrCrArCrCdTdT / antisense rGrGrUrGrCrGrGrArArArGrUrArArCrCrUrUrUdGdG” was tested. Which normalised inhibition (eCFP-eYFP dual reporter) did it give?
Answer: 50.7%

Question: With “sense rArArCrArGrArGrCrArGrArArCrArCrGrArCrAdTdT / antisense rUrGrUrCrGrUrGrUrUrCrUrGrCrUrCrUrGrUrUdGdG” as the substance, how does the normalised inhibition (eCFP-eYFP dual reporter) read?
Answer: 76.9%

Question: Which normalised inhibition (eCFP-eYFP dual reporter) does the source give for “sense rArArCrArGrUrCrArGrGrGrArGrUrCrArUrCrUdTdT / antisense rArGrArUrGrArCrUrCrCrCrUrGrArCrUrGrUrUdGdA” here?
Answer: 58.5%

Question: How did the normalised inhibition (eCFP-eYFP dual reporter) turn out when “sense rArArCrUrCrUrCrUrArGrCrArArArArCrCrArCdTdT / antisense rGrUrGrGrUrUrUrUrGrCrUrArGrArGrArGrUrUdTdG” was run?
Answer: 52.4%

Question: For “sense rArArGrGrArGrArUrArArCrArUrUrUrArUrGrAdTdT / antisense rUrCrArUrArArArUrGrUrUrArUrCrUrCrCrUrUdTdA”, which normalised inhibition (eCFP-eYFP dual reporter) is on record?
Answer: 52%

Question: For “sense rArArUrUrCrArGrArArGrGrArGrCrUrArGrCrUdTdT / antisense rArGrCrUrArGrCrUrCrCrUrUrCrUrGrArArUrUdCdT”, which normalised inhibition (eCFP-eYFP dual reporter) is on record?
Answer: 71.2%

Question: “sense rArCrArCrCrArArArCrUrCrUrCrUrArGrCrArAdTdT / antisense rUrUrGrCrUrArGrArGrArGrUrUrUrGrGrUrGrUdTdT” was tested. Which normalised inhibition (eCFP-eYFP dual reporter) did it give?
Answer: 90.1%

Question: With “sense rArCrArGrGrArUrArGrCrCrArGrArCrArGrUrGdTdT / antisense rCrArCrUrGrUrCrUrGrGrCrUrArUrCrCrUrGrUdCdG” as the substance, how does the normalised inhibition (eCFP-eYFP dual reporter) read?
Answer: 55.2%

Question: For “sense rArCrArUrCrArArCrArGrUrCrArGrGrGrArGrUdTdT / antisense rArCrUrCrCrCrUrGrArCrUrGrUrUrGrArUrGrUdTdG”, which normalised inhibition (eCFP-eYFP dual reporter) is on record?
Answer: 69.9%

molecular target: UBE2G1; assay: reporter assay of Huesken 2005; conditions: siRNA

Question: How did the normalised inhibition (eCFP-eYFP dual reporter) turn out when “sense rCrUrArArUrGrGrArGrArCrUrCrArCrCrUrGrCdTdT / antisense rGrCrArGrGrUrGrArGrUrCrUrCrCrArUrUrArGdGdG” was run?
Answer: 71.9%

Question: Which normalised inhibition (eCFP-eYFP dual reporter) does the source give for “sense rCrUrCrCrCrUrArUrCrCrArCrArCrUrGrUrGrGdTdT / antisense rCrCrArCrArGrUrGrUrGrGrArUrArGrGrGrArGdCdC” here?
Answer: 62.9%

Question: How did the normalised inhibition (eCFP-eYFP dual reporter) turn out when “sense rCrUrCrCrUrArArArArUrGrArArArUrUrCrArUdTdT / antisense rArUrGrArArUrUrUrCrArUrUrUrUrArGrGrArGdGdT” was run?
Answer: 87.9%

Question: How did the normalised inhibition (eCFP-eYFP dual reporter) turn out when “sense rCrUrCrUrArCrCrGrArUrGrGrGrArArGrUrCrCdTdT / antisense rGrGrArCrUrUrCrCrCrArUrCrGrGrUrArGrArGdAdT” was run?
Answer: 68.3%

Question: How did the normalised inhibition (eCFP-eYFP dual reporter) turn out when “sense rCrUrGrGrGrGrArArGrArUrArArGrUrArUrGrGdTdT / antisense rCrCrArUrArCrUrUrArUrCrUrUrCrCrCrCrArGdGdC” was run?
Answer: 55%

Question: Which normalised inhibition (eCFP-eYFP dual reporter) does the source give for “sense rGrArArGrUrCrCrUrUrArUrUrArUrUrGrGrCrCdTdT / antisense rGrGrCrCrArArUrArArUrArArGrGrArCrUrUrCdCdC” here?
Answer: 87.6%

Question: “sense rGrArCrArArUrGrArUrCrUrCrUrArCrCrGrArUdTdT / antisense rArUrCrGrGrUrArGrArGrArUrCrArUrUrGrUrCdAdT” was tested. Which normalised inhibition (eCFP-eYFP dual reporter) did it give?
Answer: 103%

Question: For “sense rGrArGrArArUrUrUrArArArArGrArArArArGrUdTdT / antisense rArCrUrUrUrUrCrUrUrUrUrArArArUrUrCrUrCdCdA”, which normalised inhibition (eCFP-eYFP dual reporter) is on record?
Answer: 56.4%

Question: “sense rGrArUrArArGrUrArUrGrGrUrUrArUrGrArArAdTdT / antisense rUrUrUrCrArUrArArCrCrArUrArCrUrUrArUrCdTdT” was tested. Which normalised inhibition (eCFP-eYFP dual reporter) did it give?
Answer: 87.7%

Question: “sense rGrArUrArCrArCrUrUrUrArUrGrArArGrGrUrGdTdT / antisense rCrArCrCrUrUrCrArUrArArArGrUrGrUrArUrCdTdG” was tested. Which normalised inhibition (eCFP-eYFP dual reporter) did it give?
Answer: 66%

Question: With “sense rGrArUrUrArUrCrCrCrCrUrCrCrGrArCrCrUrCdTdT / antisense rGrArGrGrUrCrGrGrArGrGrGrGrArUrArArUrCdTdT” as the substance, how does the normalised inhibition (eCFP-eYFP dual reporter) read?
Answer: 84.7%

Question: Which normalised inhibition (eCFP-eYFP dual reporter) does the source give for “sense rGrCrCrCrUrCrCrArGrArUrArCrArCrUrUrUrAdTdT / antisense rUrArArArGrUrGrUrArUrCrUrGrGrArGrGrGrCdCdA” here?
Answer: 75.2%

Question: Which normalised inhibition (eCFP-eYFP dual reporter) does the source give for “sense rGrCrUrGrCrGrArArArGrArArUrGrGrArGrGrGdTdT / antisense rCrCrCrUrCrCrArUrUrCrUrUrUrCrGrCrArGrCdAdT” here?
Answer: 63.8%

Question: With “sense rGrCrUrGrGrCrUrCrCrCrUrArUrCrCrArCrArCdTdT / antisense rGrUrGrUrGrGrArUrArGrGrGrArGrCrCrArGrCdGdT” as the substance, how does the normalised inhibition (eCFP-eYFP dual reporter) read?
Answer: 64%

Question: How did the normalised inhibition (eCFP-eYFP dual reporter) turn out when “sense rGrGrArArArCrCrArUrCrArUrGrArUrUrArGrUdTdT / antisense rArCrUrArArUrCrArUrGrArUrGrGrUrUrUrCrCdAdC” was run?
Answer: 54.4%

Question: How did the normalised inhibition (eCFP-eYFP dual reporter) turn out when “sense rGrGrArArGrUrCrCrUrUrArUrUrArUrUrGrGrCdTdT / antisense rGrCrCrArArUrArArUrArArGrGrArCrUrUrCrCdCdA” was run?
Answer: 71%
